Data on 16 compounds can be found in patent publication US5043332A, “Novel 11β-substituted -19-nor-steriods” (priority 1981, dated 1991).

The target in this assay is T1, Estrogen receptor of uterus of mice (Mus musculus, UniProt P19785).
T1 construct: the uterus were removed and homogenized at 0° C; from tissue; host or cells: mouse uterus, 105,000 g supernatant (immature females 18 to 21 days old)
T1 sequence (P19785 1-599): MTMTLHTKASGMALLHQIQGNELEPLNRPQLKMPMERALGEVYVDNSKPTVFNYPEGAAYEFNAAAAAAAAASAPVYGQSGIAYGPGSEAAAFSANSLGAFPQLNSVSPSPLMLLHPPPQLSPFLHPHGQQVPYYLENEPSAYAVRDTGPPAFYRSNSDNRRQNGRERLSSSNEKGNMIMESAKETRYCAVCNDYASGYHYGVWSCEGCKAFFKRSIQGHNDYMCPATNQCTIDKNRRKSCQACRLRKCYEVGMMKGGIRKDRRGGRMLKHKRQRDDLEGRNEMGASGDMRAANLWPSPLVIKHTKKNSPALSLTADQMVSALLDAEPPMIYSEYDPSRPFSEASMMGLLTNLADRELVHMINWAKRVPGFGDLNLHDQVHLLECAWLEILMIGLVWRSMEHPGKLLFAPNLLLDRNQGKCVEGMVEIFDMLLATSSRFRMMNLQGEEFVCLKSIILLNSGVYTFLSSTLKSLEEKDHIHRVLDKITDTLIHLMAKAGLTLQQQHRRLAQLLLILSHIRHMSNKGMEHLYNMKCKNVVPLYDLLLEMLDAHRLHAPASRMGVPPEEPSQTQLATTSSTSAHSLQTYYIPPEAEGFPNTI
The assay can be described thus: Estrogen receptor binding (displacement of tritiated estradiol). As to the method:
E. Estrogen receptor of uterus of mice
Immature female mice 18 to 21 days old were killed and the uterus were removed and homogenized at 0° C. with a polytetrafluoroethylene-glass Potter in a buffered TS solution consisting of 10 mM, Tris, 0125M Saccharose, HCl for a pH of 7.4 at a rate of 1 g of tissue per 25 ml of TS. The homogenate was then ultracentrigued at 105,000 g for 90 minutes at 0° C. and aliquoits of the resulting […] were incubated at 0° C. for a time (t) with a constant concentration (T) of tritiated estradiol in the presence of increasing concentrations (0 to 1000×10^-9 M) of either cold estradiol or cold test compound. The concentration of tied tritiated estradiol (B) was measured for each incubate by the technique of adsorption on carbon-dextran.
The calculation of the relative affinity of […] (ARL) was identical for all of the above receptor tests. One traced the following two curves: the percentage of tied tritiated hormone B/T as a function of the logarithm of the cold hormone concentration and B/T as a function of the logarithm of the concentration of the cold test product. One determined the line of the equation. [formula]
The intersection of the I50 line and the curves permits one to determine the concentrations of the cold hormone of the reference (CH) and the cold test compound (CX) which inhibit by 50% the tieing of tritiated hormone with the receptor. The relative affinity of tieing (ARL) of the test product was determined by the equation: [formula]

[1] abbreviates: second table, incubation 2 H at 0° C.

In the case of `CC#C[C@]1(OC(C)=O)CC[C@H]2[C@@H]3CCc4cc(O)ccc4[C@H]3[C@@H](c3ccc(N(C)C)cc3)C[C@@]21C` [2 (17 OAc), 11β-(4-dimethylaminophenyl)-17α-(prop-1-ynyl)-17β-acetoxy-Δ^1,3,5(10) -estratriene-3-ol], the “relative affinity of tieing (ARL), Estrogen” value (from here on “relative affinity of tieing”) (incubation 2 H at 0° C.) is < 0,1 and the “relative affinity of tieing” value (incubation 5 H (25° C.)) is on record as 0,1. Taken in the same sequence, the figures for `CC#C[C@]1(O)CC[C@H]2[C@@H]3CCC4=CC(=O)[C@H](C)CC4=C3[C@@H](c3ccc(N(C)C)cc3)C[C@@]21C` [5 (2α), 2α-methyl-11β-(4-dimethylaminophenyl)-17α-(prop-1-ynyl)-Δ^4,9-estradiene-17β-ol-3-one] were < 0,1 and < 0,1. `CC#C[C@]1(O)CC[C@H]2[C@@H]3CCC4=CC(=O)[C@@H](C)CC4=C3[C@@H](c3ccc(N(C)C)cc3)C[C@@]21C` [5 (2β), 2-methyl-11β-(4-dimethylaminophenyl)-17α-(prop-1-ynyl)-Δ^4,9-estradiene-17β-ol-3-one]: the “relative affinity of tieing” value runs as follows: (incubation 2 H at 0° C.) < 0,1; (incubation 5 H (25° C.)) < 0,1.

As to `CC#C[C@]1(O)CC[C@H]2[C@@H]3CCC4=CC(=O)C(C)(C)CC4=C3[C@@H](c3ccc(N(C)C)cc3)C[C@@]21C` [Example 1, 2,2-dimethyl-11β-(4-dimethylaminophenyl)-17α-(prop-1-ynyl)-Δ^4,9-estradiene-17β-ol-3-one], the “relative affinity of tieing” value is recorded as < 0,1 (incubation 2 H at 0° C.) and < 0,1 (incubation 5 H (25° C.)). For `CC#C[C@]1(O)CC[C@H]2[C@@H]3CCC4=CC(=O)C(C#N)(C#N)CC4=C3[C@@H](c3ccc(N(C)C)cc3)C[C@@]21C` [Example 9, 2,2-dicyano-11β-(4-dimethylaminophenyl)-17α-(prop-1-ynyl)-Δ^4,9-estradiene-17β-ol-3-one], the “relative affinity of tieing” value is reported as < 0,1 (incubation 2 H at 0° C.) and < 0,1 (incubation 5 H (25° C.)). For the compound `CC#C[C@]1(O)CC[C@H]2[C@@H]3CCC4=C(CCC(=O)C4)[C@H]3[C@@H](c3ccc(N(C)C)cc3)C[C@@]21C` [Example 10, 11β-(4-dimethylaminophenyl)-17α-(prop-1-ynyl)-Δ^5(10) -estrene-17β-ol-3-one], the “relative affinity of tieing” value runs as follows: (incubation 2 H at 0° C.) < 0,1; (incubation 5 H (25° C.)) < 0,1.

Consider `C#C[C@@]1(O)CC[C@H]2[C@@H]3CCC4=CC(=O)CCC4=C3[C@@H](c3ccc(N(C)C)cc3)C[C@@]21C` [Example 21, 11β-[4-(N,N-dimethylamino)-phenyl]-17β-ethynyl-Δ^4,9-estradiene-17α-ol-3-one], for which the “relative affinity of tieing” value under setting [1] turned out to be 0.

On to `C=C(C)C#C[C@]1(O)CC[C@H]2[C@@H]3CCC4=CC(=O)CCC4=C3[C@@H](c3ccc(N(C)C)cc3)C[C@@]21C` [Example 23, 11β-[4-(N,N-dimethylamino)-phenyl]-23-methyl-19,21-dinor-17α-Δ^4,9,23-cholatriene-20-yn-17β-ol-3-one], for which the “relative affinity of tieing” value under setting [1] worked out at 0. Same read-out and setting: the result for `CN(C)c1ccc([C@H]2C[C@@]3(C)[C@@H](CC[C@@]3(O)C#CCl)[C@@H]3CCC4=CC(=O)CCC4=C32)cc1` [Example 25, 11β-[4-(N,N-dimethylamino)-phenyl]-21-chloro-19-nor-17α-Δ^4,9-pregnadiene-20-yne-17β-ol-3-one] reads 0. The same measure, in the same setting: the value for `C[C@]12C[C@H](c3ccc([N+](C)(C)[O-])cc3)C3=C4CCC(=O)C=C4CC[C@H]3[C@@H]1CC[C@@]2(O)C#CCl` [Example 26, N-oxide of 11β-[4-(N,N-dimethylamino)-phenyl]-21-chloro-19-nor-17α-Δ^4,9-pregnadiene-20-yne-17β-ol-3-one] was 0; that for `C[C@]12C[C@H](c3ccc([N+](C)(C)[O-])cc3)[C@]34O[C@]35CCC(=O)C=C5CC[C@H]4[C@@H]1CC[C@@]2(O)C#CCl` [Example 27, N-oxide of 11β-[4-(N,N-dimethylamino)-phenyl]-9α,10α-epoxy-21-chloro-19-nor-17α-Δ^4-pregnene-20-yne-17β-ol-3-one] was 0; that for `CN(C)c1ccc([C@H]2C[C@@]3(C)[C@@H](CC[C@@]3(O)C#Cc3ccccc3)[C@@H]3CCC4=CC(=O)CCC4=C32)cc1` [Example 29, 11β-[4-(N,N-dimethylamino)-phenyl]-21-phenyl-19-nor-17α-Δ^4,9-pregnadiene-20-yne-17β-ol-3-one] was 0. The same measure, in the same setting: the result for `C#C[C@]1(O)CC[C@H]2[C@@H]3CCC4=CC(=O)CCC4=C3[C@@H](c3ccc(N(C)C)cc3)C[C@@]21C` [Example 32, 11β-[4-(N,N-dimethylamino)-phenyl]-17α-ethynyl-Δ^4,9-estradiene-17β-ol-3-one] reads 0. `CC#C[C@]1(O)CC[C@H]2[C@@H]3CCC4=CC(=O)CCC4=C3[C@@H](c3ccc([N+](C)(C)[O-])cc3)C[C@@]21C` [Example 35, N-oxide of 11β-[4-(N,N-dimethylamino)-phenyl]-17α-(prop-1-ynyl)-Δ^4,9-estradiene-17β-ol-3-one]: under setting [1], the “relative affinity of tieing” value is 0. Still for that read-out and setting: the value for `C=CC[C@]1(O)CC[C@H]2[C@@H]3CCC4=CC(=O)CCC4=C3[C@@H](c3ccc(N(C)C)cc3)C[C@@]21C` [Example 37, 11β-[4-(N,N-dimethylamino)-phenyl]-17α-(prop-2-enyl)-Δ^4,9-estradien-17β-ol-3-one] was 0; that for `CN(C)c1ccc([C@H]2C[C@@]3(C)[C@@H](CC[C@@]3(O)C#C[Si](C)(C)C)[C@@H]3CCC4=CC(=O)CCC4=C32)cc1` [Example 44, 11β-[4-(N,N-dimethylamino)-phenyl]-21-trimethylsilyl-19-nor-17α-Δ^4,9-pregnadiene-20-yne-17β-ol-3-one] was 0.
